The record followed here is US8986957B2, “Cell culture medium” (Novartis AG, priority 2010, dated 2015).

Experiment [1] deals with CHO cells expressing mAb3. Conditions: higher concentrations of choline chloride in production medium vs standard 240 mg/L.
Protocol: Three aliquots of this parental cell line are transfected to express three different monoclonal antibodies mAb1, mAb2, mAb3, respectively.
All nine shake flasks (three for each experiment) are run under the same conditions, except for the medium. The conditions involve a fed-batch culture with two daily bolus feeds starting at days 3 and 5 with a feeding rate of 2 and 0.4% of the initial culture volume per day; a temperature shift from 36.5° C. to 33° C. at day 5; 10% CO2 in the incubator; a shaking rate of 150 rpm (stroke radius=25 mm). The cell growth/viability of the cells as well as the resulting titer of recombinant antibody expressed are determined.
The test system of experiment [2] is CHO cells expressing mAb3 and mAb4. On the procedure:
In a further set of experiments, choline chloride is added in various concentrations (40; 80; 120; 160, 200; 240; 500; 840; 1000; 3000 und 5000 mg/l in total) to powder growth medium. The media thus obtained are used for producing mAb3 and mAb4, respectively, generally as outlined above.
Normalized antibody concentrations, normalized viable cell densities, and viabilities, for mAb3 and in addition for mAb4 the normalized cell specific productivity for the whole duration of the cultivation (13 resp. 17 days) are further depicted in FIG. 14 to FIG. 24.

Where [3] appears, read: choline chloride 3000 mg/l and more.

Consider `C[N+](C)(C)CCO.[Cl-]` [choline chloride], for which the “cell growth or polypeptide titer” value in experiment [1] is recorded as “did not result in improved cell growth or polypeptide titer”. Besides, the “viability and antibody concentration” value in experiment [2] (40 mg/l choline chloride in total, after 13 or 17 days in culture) was “lowest values”. Also, the viability result in experiment [2] (all choline concentrations higher than 40 mg/l) is given as “higher”. Further, in experiment [2] (setting [3]), the cell growth result was “do not grow” and the “viability of the cells” value is listed as “do not negatively affect the viability”. In addition, the normalized antibody concentration entry in experiment [2] (choline chloride 3000 mg/l and more, after 13 or 17 days) is “below 1”.
